From patent US7485641B2, “Substituted 3-amino-pyrrolidino-4-lactams” (Pfizer, Inc., priority 2006, dated 2009) come the findings set out here.

Structures can show the parent of a compound that is named as a salt. Where two headings read alike, the source gives them in different places.

The target in the assay is T1, DPP-IV (Homo sapiens, UniProt P27487).
T1 construct: purchased Enzyme Systems Products SPE-01
Briefly: In vitro assay for dipeptidyl peptidase inhibition. The format is biochemical. The settings on record: for inhibition at 0.3 µM: at 300 nM, read-out: DPP-IV Percent Inhibition at 300 nM.

Setting [1] is: n-value given in brackets, read-out: DPP-IV IC50.

T1 sequence (P27487 whole entry, species assumed): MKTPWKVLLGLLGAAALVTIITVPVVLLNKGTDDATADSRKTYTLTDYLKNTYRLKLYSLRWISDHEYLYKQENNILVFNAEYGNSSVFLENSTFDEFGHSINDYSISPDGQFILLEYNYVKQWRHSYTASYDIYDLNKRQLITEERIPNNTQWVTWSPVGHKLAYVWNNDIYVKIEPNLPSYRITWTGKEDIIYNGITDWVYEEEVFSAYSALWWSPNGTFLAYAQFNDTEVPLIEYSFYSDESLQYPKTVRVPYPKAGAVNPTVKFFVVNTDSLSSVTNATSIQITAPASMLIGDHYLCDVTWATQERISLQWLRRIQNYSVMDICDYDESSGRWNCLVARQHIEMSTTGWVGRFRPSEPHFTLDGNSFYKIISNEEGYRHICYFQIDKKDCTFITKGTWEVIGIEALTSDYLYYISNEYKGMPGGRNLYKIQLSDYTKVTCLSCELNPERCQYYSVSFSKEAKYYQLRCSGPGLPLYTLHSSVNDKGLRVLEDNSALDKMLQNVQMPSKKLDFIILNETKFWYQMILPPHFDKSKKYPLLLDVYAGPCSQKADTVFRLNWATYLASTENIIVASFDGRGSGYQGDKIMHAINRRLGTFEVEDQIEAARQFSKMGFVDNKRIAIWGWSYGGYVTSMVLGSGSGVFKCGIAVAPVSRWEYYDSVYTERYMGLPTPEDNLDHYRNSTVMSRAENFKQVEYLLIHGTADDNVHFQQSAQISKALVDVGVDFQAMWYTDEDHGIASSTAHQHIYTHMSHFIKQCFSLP

For the compound `CS(=O)(=O)Oc1ccc2c(N3C[C@H](N)[C@@H](N4CCCCC4=O)C3)ncnc2c1` [Example 135, 4-((3S,4S)-3-amino-4-(2-oxopiperidin-1-yl)pyrrolidin-1-yl)quinazolin-7-yl methanesulfonate], the IC50 under setting [1] was found to be 128 nM.

Regarding `N[C@H]1CN(c2ncnc(N3CCc4sccc4C3)n2)C[C@@H]1N1CCCCC1=O` [Example 71, 1-{(3S,4S)-4-Amino-1-[4-(6,7-dihydro-4H-thieno[3,2-c]pyridine-5-yl)-[1,3,5]triazin-2-yl]-pyrrolidin-3-yl}-piperidin-2-onetrifluoroacetate], under setting [1], the IC50 is 139 nM.

For `COc1nc(OC)nc(N2C[C@H](N)[C@@H](N3CCCCC3=O)C2)n1` [Example 147, 1-[(3S,4S)-4-Amino-1-(4,6-dimethoxy-[1,3,5]triazin-2-yl)-pyrrolidin-3-yl]-piperidin-2-onetrifluoroacetate], the IC50 under setting [1] was determined as 133 nM.

`N[C@H]1CN(c2ncnc3cc(OC(F)F)ccc23)C[C@@H]1N1CCCCC1=O` [Example 124, 1-((3S,4S)-4-amino-1-(7-(difluoromethoxy)quinazolin-4-yl)pyrrolidin-3-yl)piperidin-2-one]: the IC50 under setting [1] amounted to 33.2 nM.

Regarding `CC(=O)N[C@H]1CCN(c2ncnc(N3C[C@H](N)[C@@H](N4CCCCC4=O)C3)n2)C1` [Example 41, N-((S)-1-{4-[(3S,4S)-3-Amino-4-(2-oxo-piperidin-1-yl)-pyrrolidin-1-yl]-[1,3,5]triazin-2-yl}-pyrrolidin-3-yl)-acetamidetrifluoroacetate], under setting [1], the IC50 was determined as 90 nM.

`N[C@H]1CN(c2cc(N3CCC(F)(F)C3)nc(C(F)(F)F)n2)C[C@@H]1N1CCCCC1=O` [Example 14, 1-((3S,4S)-4-amino-1-(6-(3,3-difluoropyrrolidin-1-yl)-2-(trifluoromethyl)pyrimidin-4-yl)pyrrolidin-3-yl)piperidin-2-one]: under setting [1], the IC50 is 45.1 nM.

For `COc1cccc2c(N3C[C@H](N)[C@@H](N4CCCCC4=O)C3)ncnc12` [Example 108, 1-((3S,4S)-4-Amino-1-(8-methoxyquinazolin-4-yl)pyrrolidin-3-yl)piperidin-2-one trifluoroacetate], under setting [1], the IC50 worked out at 175 nM.

With `N[C@H]1CN(c2ncnc3cc(Oc4ccc(F)cc4)ccc23)C[C@@H]1N1CCCCC1=O` [Example 128, 1-((3S,4S)-4-amino-1-(7-(4-fluorophenoxy)quinazolin-4-yl)pyrrolidin-3-yl)piperidin-2-one], under setting [1], the IC50 amounted to 222 nM.

For `N[C@H]1CN(c2cc(N3Cc4ccc(C(F)(F)F)cc4C3)ncn2)C[C@@H]1N1CCCCC1=O` [Example 53, 1-((3S,4S)-4-amino-1-(6-(5-(trifluoromethyl)isoindolin-2-yl)pyrimidin-4-yl)pyrrolidin-3-yl)piperidin-2-onetrifluoroacetate], the IC50 under setting [1] was 92.4 nM.

`CC(C)c1ccc2c(N3C[C@H](N)[C@@H](N4CCCCC4=O)C3)ncnc2c1` [Example 116, 1-((3S,4S)-4-amino-1-(7-isopropylquinazolin-4-yl)pyrrolidin-3-yl)piperidin-2-one]: the IC50 under setting [1] is 55.9 nM.

As to `N[C@H]1CN(c2ncnc3cc(F)ccc23)C[C@@H]1N1CCCCC1=O` [Example 105, 1-((3S,4S)-4-Amino-1-(7-fluoroquinazolin-4-yl)pyrrolidin-3-yl)piperidin-2-one trifluoroacetate], the IC50 under setting [1] came to 241 nM.

The inhibition is the share of the control response that was lost under treatment. On to `CC1(C)CN(c2ncnc(N3C[C@H](N)[C@@H](N4CCCCC4=O)C3)n2)CC1(C)C` [Example 46, 1-((3S,4S)-4-amino-1-(4-(3,3,4,4-tetramethylpyrrolidin-1-yl)-1,3,5-triazin-2-yl)pyrrolidin-3-yl)piperidin-2-one], for which the inhibition at 0.3 µM (n-value given in brackets) amounted to 6.8%.

In the case of `COc1ccc(Cl)c2c(N3C[C@H](N)[C@@H](N4CCCCC4=O)C3)ncnc12` [Example 152, 1-((3S,4S)-4-amino-1-(5-chloro-8-methoxyquinazolin-4-yl)pyrrolidin-3-yl)piperidin-2-one trifluoroacetate], the IC50 under setting [1] was above 30000 nM.

`COc1cc2ncnc(N3C[C@H](N)[C@@H](N4CCCCC4=O)C3)c2cc1Cl` [Example 106, 1-((3S,4S)-4-Amino-1-(6-chloro-7-methoxyquinazolin-4-yl)pyrrolidin-3-yl)piperidin-2-one trifluoroacetate]: the IC50 under setting [1] amounted to 99.6 nM.

`CC(C)Oc1ccc2c(N3C[C@H](N)[C@@H](N4CC(F)(F)CCC4=O)C3)ncnc2c1` [Example 100, 1-((3S,4S)-4-amino-1-(7-isopropoxyquinazolin-4-yl)pyrrolidin-3-yl)-5,5-difluoropiperidin-2-one]: the IC50 under setting [1] is 44.7 nM.

Take `N[C@H]1CN(c2ncnc3cc(Oc4ccc(OC(F)(F)F)cc4)ccc23)C[C@@H]1N1CCCCC1=O` [Example 133, 1-((3S,4S)-4-amino-1-(7-(4-(trifluoromethoxy)phenoxy)quinazolin-4-yl)pyrrolidin-3-yl)piperidin-2-one]: the IC50 under setting [1] is 200 nM.

On to `COc1ccc2c(N3C[C@H](N)[C@@H](N4CCCCC4=O)C3)nncc2c1` [Example 146, 1-((3S,4S)-4-amino-1-(6-methoxyphthalazin-1-yl)pyrrolidin-3-yl)piperidin-2-one], for which the IC50 under setting [1] amounted to 46.2 nM.

With `N[C@H]1CN(C(=O)c2cc3ccccc3s2)C[C@@H]1N1CCCCC1=O` [Example 160, 1-[(3S,4S)-4-Amino-1-(benzo[b]thiophene-2-carbonyl)-pyrrolidin-3-yl]-piperidin-2-onehydrochloride], the IC50 (Examples 156-162, n-value in brackets, IC50's or percent inhibition at 300 nM, read-out: DPP-IV inhibition) was determined as 317 nM.

Regarding `N[C@H]1CN(c2cc(N3Cc4cc(Cl)c(Cl)cc4C3)ncn2)C[C@@H]1N1CCCCC1=O` [Example 54, 1-((3S,4S)-4-amino-1-(6-(5,6-dichloroisoindolin-2-yl)pyrimidin-4-yl)pyrrolidin-3-yl)piperidin-2-one], the inhibition at 0.3 µM (n-value given in brackets) was 32.6%.

In the case of `CCS(=O)(=O)c1ccc2c(N3C[C@H](N)[C@@H](N4CCCCC4=O)C3)ncnc2c1` [Example 139, 1-((3S,4S)-4-amino-1-(7-(ethylsulfonyl)quinazolin-4-yl)pyrrolidin-3-yl)piperidin-2-one], the inhibition at 0.3 µM (n-value given in brackets) amounted to 33.5%.

For the compound `N[C@H]1CN(c2cc(N3CCC(F)(F)C3)nc(C3CC3)n2)C[C@@H]1N1CCCCC1=O` [Example 17, 1-((3S,4S)-4-amino-1-(2-cyclopropyl-6-(3,3-difluoropyrrolidin-1-yl)pyrimidin-4-yl)pyrrolidin-3-yl)piperidin-2-one], under setting [1], the IC50 was 109 nM.

For `Cc1nc(N2C[C@H](N)[C@@H](N3CC(F)(F)CCC3=O)C2)cc(N2CCCC(F)(F)C2)n1` [Example 33, 1-((3S,4S)-4-amino-1-(6-(3,3-difluoropiperidin-1-yl)-2-methylpyrimidin-4-yl)pyrrolidin-3-yl)-5,5-difluoropiperidin-2-onetrifluoroacetate], the IC50 under setting [1] was 97.7 nM.

Turning to `N[C@H]1CN(c2cc(-c3ccccc3)ncn2)C[C@@H]1N1CCCCC1=O` [Example 7, 1-((3S,4S)-4-Amino-1-(6-phenylpyrimidin-4-yl)pyrrolidin-3-yl)piperidin-2-one hydrochloride], under setting [1], the IC50 is 47.4 nM.

As to `Cc1nc(-c2ccccc2)cc(N2C[C@H](N)[C@@H](N3CC(F)(F)CCC3=O)C2)n1` [Example 83, 1-((3S,4S)-4-amino-1-(2-methyl-6-phenylpyrimidin-4-yl)pyrrolidin-3-yl)-5,5-difluoropiperidin-2-one], the IC50 under setting [1] was 33.9 nM.
